Results on 3 molecules are retold here after patent US9751889B2 (CRYSTAL PHARMATECH INC., priority 2013, dated 2017).

Values after ≈ are worked out from the molar mass of the structure shown. Like-named read-outs stand apart in the source and are kept apart here.

The conditions of data set [1]: cited from earlier work.
The next data set in a line: physchem. Conditions: for Solubility / solubility at 1 h / solubility at 4 h / solubility at 24 h: RT; for Solubility: listed as WO2013184572A1 Form A; for solubility at 1 h / solubility at 4 h / solubility at 24 h: thermodynamic from solid. The protocol:
2. Add 3 mL of bio-relevant medium into each vial.
3. Cap the vials and keep all the suspension samples stirring at RT (room temperature) using a rolling incubator at a rate of 25 r/min.
4. Sample at 1 h, 4 h and 24 h respectively. About 0.6 mL aliquot of the suspension is transferred per time from solubility vial into a centrifuge filtration tube (pore size of 0.45 μm).
5. Centrifuge filtration tubes at a rate of 8500 rpm for 3 minutes at RT, collect 0.2 mL of supernatant for HPLC quantification determination and collect the rest of solution for pH measurement, and separate the solid for XRPD characterization.

The conditions of data set [2]: DVS, 25° C. As for the experimental part: Dynamic Vapor Sorption (DVS)
Dynamic Vapor Sorption (DVS) was measured via a SMS (Surface Measurement Systems) DVS Intrinsic. The relative humidity at 25° C. were calibrated against deliquescence point of LiCl, Mg(NO3)2 and KCl. Typical Parameters for DVS test are listed below.

For data set [3] the following is noted: dish open, 180 days; for Chemical purity: HPLC; for Final form: XRPD. As for the experimental part: The chemical and physical stabilities of the samples were evaluated by high performance liquid chromatography (HPLC) and XRPD.

For orientation: Solubility means the dissolved amount per volume that the medium holds. `C=CC(=O)N1CCC[C@@H](n2nc(-c3ccc(Oc4ccccc4)cc3)c3c(N)ncnc32)C1` [Form A, 1-[(3R)-3-[4-amino-3-(4-phenoxyphenyl)-1H-pyrazolo [3,4-d]pyrimidin-1-yl]piperidin-1-yl]prop-2-en-1-one, reference compound]: the Solubility in data set [1] (pH=8) was 13 µg/mL (≈ 29.5 µM); in “physchem” (FeSSIF, time point 1 h), 100 µg/mL (≈ 227 µM); in the data set “physchem” (FeSSIF, time point 4 h) it was 110 µg/mL (≈ 250 µM); in the data set “physchem” (FeSSIF, time point 24 h), 130 µg/mL (≈ 295 µM); in “physchem” (SGF, time point 1 h), 360 µg/mL (≈ 817 µM); in “physchem” (SGF, time point 4 h), 390 µg/mL (≈ 885 µM). In the data set “physchem” (SGF, time point 24 h), this molecule showed a Solubility of 380 µg/mL (≈ 863 µM).
`C=CC(=O)N1CCC[C@@H](n2nc(-c3ccc(Oc4ccccc4)cc3)c3c(N)ncnc32)C1` [Form B, 1-[(3R)-3-[4-amino-3-(4-phenoxyphenyl)-1H-pyrazolo [3,4-d]pyrimidin-1-yl]piperidin-1-yl]prop-2-en-1-one]: the Solubility in data set [1] (pH=7.42) was 9.6 µg/mL (≈ 21.8 µM).
Usually solubility stands for the concentration that dissolves in the medium under given conditions. Higher therefore signals much dissolved substance. `C=CC(=O)N1CCC[C@@H](n2nc(-c3ccc(Oc4ccccc4)cc3)c3c(N)ncnc32)C1` [Form I, 1-[(3R)-3-[4-amino-3-(4-phenoxyphenyl)-1H-pyrazolo [3,4-d]pyrimidin-1-yl]piperidin-1-yl]prop-2-en-1-one]: the “Water uptake under 80% RH” value in data set [2] (80% RH) was determined as 0.19%; in data set [2] (80% RH, listed as Ibrutinib Form I) it was 0.19%. The “Water uptake under 95% RH” value in data set [2] (95% RH) is reported as 0.48%. The “Hygroscopicity (European pharmacopoeia criteria)” value in data set [2] (80% RH) was “non-hygroscopic”. Also, the Chemical purity in data set [3] (25° C./60% RH) and in data set [3] (40° C./75% RH) was 98.98% each time. Further, the Final form result in data set [3] (25° C./60% RH) and in data set [3] (40° C./75% RH) was “Form I” each time. Besides, the “Solubility in comparison to crystalline Form A (WO2013184572A1)” value in “physchem” (FeSSIF and SGF) is given as “higher solubility”. In addition, the solubility at 1 h in the data set “physchem” (fed state simulated intestinal fluid (FeSSIF), fessif, time point 1 h) was 150 µg/mL (≈ 341 µM); in the data set “physchem” (simulated gastric fluid (SGF), simulated gastric fluid, SGF, time point 1 h), 500 µg/mL (≈ 1140 µM). Further, the solubility at 4 h was 160 µg/mL (≈ 363 µM) in “physchem” (fed state simulated intestinal fluid (FeSSIF), fessif, time point 4 h) and 500 µg/mL (≈ 1140 µM) in “physchem” (simulated gastric fluid (SGF), simulated gastric fluid, SGF, time point 4 h). Besides, the solubility at 24 h in the data set “physchem” (fed state simulated intestinal fluid (FeSSIF), fessif, time point 24 h) is 160 µg/mL (≈ 363 µM); in “physchem” (simulated gastric fluid (SGF), simulated gastric fluid, SGF, time point 24 h), 480 µg/mL (≈ 1090 µM).
